Measured values: patent US20120264755A1, “PYRIDINYL DERIVATIVES AS INHIBITORS OF ENZYME NICOTINAMIDE PHOSPHORIBOSYLTRANSFERASE” (TopoTarget, priority 2009, published 2012)

Test system: A2780 cells
Experiment: In vitro cell proliferation assay (WST-1 assay)
Format: cell-based
Conditions: Homo sapiens, total incubation time 72 h, WST-1 readout
Procedure: A2780 cells were seeded in 96-well plates at 3×10^3 cells/well in 100 μL of culture medium, 8 wells were left empty for media only controls.
After 24 h the compound titrations were performed, in a separate dilution plate, by serially diluting the compounds of general formula (I) in culture medium. A 100 μL of each dilution was added to the plated cells, this was done in triplicate, and controls (e.g. DMSO and blanks) were included. The plates were incubated for 24 h at 37° C. in a CO2 incubator. The compound titrations were repeated in a separate dilution plate after 24 h. The media plus compound from the assay plates were then aspirated. A 100 μL of media was then added to all wells, followed by 100 μL of each compound dilution. The plates were incubated for a further 48 h at 37° C. in a CO2 incubator (total incubation time 72 h). The number of viable cells was then assessed using Cell Proliferation Reagent WST-1. 10 μL of WST-1 reagent added to each well and incubated for one to four hours at 37° C. in CO2 incubator. The absorbance was measured (450 nm/690 nm).
The activity of compounds of general formula (I) in reducing the number of viable cells was calculated as:
% activity=[(S^c−B)/(S^o−B)]×100
S^c denotes signal measured in the presence of test compound, S^o denotes signal detected in the absence of compound, and B denotes background signal, measured in blank wells containing medium only. Analyse data using GraphPad Prism.

SMILES | IC50 [nM]
N#C/N=C(\NCCCCCCCN(CCCN1CCOCC1)C1CCCCC1)Nc1ccncc1 [Compound 1002, 2-cyano-1-(7-(cyclohexyl(3-morpholinopropyl)amino)heptyl)-3-(pyridin-4-yl)guanidine] | 2.03
N#C/N=C(\NCCCCCCCCN(CCCN1CCOCC1)C1CCCCC1)Nc1ccncc1 [Compound 1001] | 0.49
O=c1c(NCCCCCCCCN(CCCN2CCOCC2)S(=O)(=O)C2CCCC2)c(Nc2ccncc2)c1=O [Compound 1016, N-(8-(3,4-dioxo-2-(pyridin-4-ylamino)cyclobut-1-enylamino)octyl)-N-(3-morpholinopropyl)cyclopentanesulfonamide] | 0.44
CS(=O)(=O)N(CCCCCCCCNC(=O)/C=C/c1cccnc1)CCCN1CCOCC1 [Compound 1033, N-(8-(N-(3-morpholinopropyl)methylsulfonamido)octyl)-3-(pyridin-3-yl)acrylamide] | 1.17
O=C(NCCCCCCCCN(CCCN1CCOCC1)S(=O)(=O)C1CCCCC1)NCc1cccnc1 [Compound 1013, N-(3-morpholinopropyl)-N-(8-(3-(pyridin-3-ylmethyl)ureido)octyl)cyclohexanesulfonamide] | 0.025
O=C(NCCCCCCCN(OC1CCCCO1)S(=O)(=O)Cc1ccccc1)NCc1cccnc1 (stereo not shown) [Compound 1057, 1-Phenyl-N-(7-(3-(pyridin-3-ylmethyl)ureido)heptyl)-N-(tetrahydro-2H-pyran-2-yloxy)methanesulfonamide] | 0.37
CCS(=O)(=O)N(CCCCCN/C(=N\C#N)Nc1ccncc1)OCC1CCCCC1 [Compound 1144] | 0.037
O=c1c(NCCCCCCCN(CCF)S(=O)(=O)C2CCCCC2)c(Nc2ccncc2)c1=O [Compound 1099, N-(7-(3,4-dioxo-2-(pyridin-4-ylamino)cyclobut-1-enylamino)heptyl)-N-(2-fluoroethyl)cyclohexanesulfonamide] | 0.43
N#C/N=C(\NCCCCCCCCN(CCCN1CCOCC1)S(=O)(=O)c1ccccc1)Nc1ccncc1 [Compound 1035, N-(8-(2-cyano-3-(pyridin-4-yl)guanidino)octyl)-N-(3-morpholinopropyl)benzenesulfonamide] | 0.042
N#C/N=C(\NCCCCCCCCNOCC1CCCCC1)Nc1ccncc1 [Compound 1107, 2-cyano-1-(8-(cyclohexylmethoxyamino)octyl)-3-(pyridin-4-yl)guanidine] | 0.57
CS(=O)(=O)N(CCCCCCCCN/C(=N\C#N)Nc1ccncc1)OCc1ccccc1 [Compound 1020] | 0.018
CCNC(=O)N(CCCCCCCCN/C(=N\C#N)Nc1ccncc1)OCC1CCCCC1 [Compound 1125, 1-(8-(2-cyano-3-(pyridin-4-yl)guanidino)octyl)-N-(cyclohexylmethoxy)-3-ethylurea] | 0.057
N#C/N=C(\NCCCCCCCN(CCCN1CCOCC1)S(=O)(=O)C1CCCCC1)Nc1ccncc1 [Compound 1010, N-(7-(2-cyano-3-(pyridin-4-yl)guanidino)heptyl)-N-(3-morpholinopropyl)cyclohexanesulfonamide] | 0.002
